{"source": "patent US6344178B1", "about": "“Method for the preparation of facial metal tricarbonyl compounds and their use in the labelling of biologically active substrates” (Mallinckrodt Inc., priority 1997, dated 2002)", "system": "coloncarcinoma cells HT29", "experiment": "Kd on coloncarcinoma cells HT29", "assay_type": "binding", "procedure": "0.9 ml of [^99mTc(OH2)3(CO)3]^+ as prepared in example 1 is mixed with 0.1 ml of 10^−3M His-Neurotensin(8-13) (HRRPYIIL) and kept in a sealed tube at 75° C. for one hour. After this time the reaction mixture is cooled to room temperature. As evident from reversed phase column HPLC the yield is >95%. The Kd of this compound on coloncarcinoma cells HT29 is 1.0 nM.", "data": [{"sequence": "HRRPYIIL [His-Neurotensin(8-13), His-Neurotensin(8-13) (HRRPYIIL) labelled with [99mTc(OH2)3(CO)3]+]", "values": [{"measurement": "Kd", "result": 1, "unit": "nM"}]}]}
